pIC50, pKi: −log10 of the molar value.
Columns and labels:
[1] = DRUGMATRIX: ATPase, Na+/K+ enzyme inhibition (substrate: ATP); type: tissue-based, Sus scrofa, Heart; settings: Not Active = under 50% inhibition at 10 µM
[2] = target: T1, C-C chemokine receptor type 4 (Homo sapiens, UniProt P51679); type: cell membranes, Membrane; settings: chem-1; also: in other assays of this panel Not Active means under 50% inhibition at 10 µM
T1 sequence (P51679 whole entry): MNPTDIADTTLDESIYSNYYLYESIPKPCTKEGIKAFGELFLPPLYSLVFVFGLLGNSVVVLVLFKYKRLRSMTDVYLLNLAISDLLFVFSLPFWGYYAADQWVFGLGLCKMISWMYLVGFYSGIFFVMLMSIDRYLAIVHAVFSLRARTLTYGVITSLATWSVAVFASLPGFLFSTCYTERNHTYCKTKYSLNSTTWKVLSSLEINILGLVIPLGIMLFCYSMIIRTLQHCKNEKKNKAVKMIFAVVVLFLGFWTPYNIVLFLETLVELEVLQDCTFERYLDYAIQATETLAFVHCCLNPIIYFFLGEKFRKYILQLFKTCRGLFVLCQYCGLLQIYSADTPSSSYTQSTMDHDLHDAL

[3] = target: C-C chemokine receptor type 5 (Homo sapiens, UniProt P51681); type: cell membranes, Membrane; settings: hek293; also: in other assays of this panel Not Active means under 50% inhibition at 10 µM
C-C chemokine receptor type 5, sequence (P51681 whole entry): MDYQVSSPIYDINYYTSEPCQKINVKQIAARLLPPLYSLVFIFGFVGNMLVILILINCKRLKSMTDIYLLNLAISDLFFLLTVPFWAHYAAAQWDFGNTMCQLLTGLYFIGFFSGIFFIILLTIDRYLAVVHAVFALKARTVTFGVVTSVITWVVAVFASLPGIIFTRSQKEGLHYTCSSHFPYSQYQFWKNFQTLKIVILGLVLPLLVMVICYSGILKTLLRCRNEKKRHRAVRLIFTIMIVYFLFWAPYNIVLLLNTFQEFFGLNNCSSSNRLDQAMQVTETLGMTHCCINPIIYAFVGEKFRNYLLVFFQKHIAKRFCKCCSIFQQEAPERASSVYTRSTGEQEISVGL

[4] = target: T2, Amine oxidase [flavin-containing] A (Homo sapiens, UniProt P21397); assay: DRUGMATRIX: Monoamine Oxidase MAO-A enzyme inhibition (substrate: Kynuramine); design: species or system BTI-TN-5B1-4; settings: bti-tn-5b1-4; Not Active = under 50% inhibition at 10 µM
T2 sequence (P21397 whole entry): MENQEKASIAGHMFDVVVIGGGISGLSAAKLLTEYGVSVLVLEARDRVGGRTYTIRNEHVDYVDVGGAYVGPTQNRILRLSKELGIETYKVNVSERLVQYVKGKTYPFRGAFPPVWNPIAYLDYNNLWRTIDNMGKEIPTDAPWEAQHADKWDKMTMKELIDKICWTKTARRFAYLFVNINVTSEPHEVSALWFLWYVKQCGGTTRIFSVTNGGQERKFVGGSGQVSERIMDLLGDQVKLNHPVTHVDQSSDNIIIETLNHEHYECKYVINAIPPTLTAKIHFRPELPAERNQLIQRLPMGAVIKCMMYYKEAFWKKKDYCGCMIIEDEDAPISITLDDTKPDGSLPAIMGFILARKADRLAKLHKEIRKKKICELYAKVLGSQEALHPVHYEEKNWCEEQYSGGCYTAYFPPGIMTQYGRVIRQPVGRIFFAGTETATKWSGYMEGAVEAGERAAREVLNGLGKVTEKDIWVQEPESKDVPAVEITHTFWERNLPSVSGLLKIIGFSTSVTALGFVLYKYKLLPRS

[5] = target: T3, Neuropeptide Y receptor type 2 (Homo sapiens, UniProt P49146); type: cell membranes, KAN-TS, Membrane; settings: kan-ts; also: in other assays of this panel Not Active means under 50% inhibition at 10 µM
T3 sequence (P49146 whole entry): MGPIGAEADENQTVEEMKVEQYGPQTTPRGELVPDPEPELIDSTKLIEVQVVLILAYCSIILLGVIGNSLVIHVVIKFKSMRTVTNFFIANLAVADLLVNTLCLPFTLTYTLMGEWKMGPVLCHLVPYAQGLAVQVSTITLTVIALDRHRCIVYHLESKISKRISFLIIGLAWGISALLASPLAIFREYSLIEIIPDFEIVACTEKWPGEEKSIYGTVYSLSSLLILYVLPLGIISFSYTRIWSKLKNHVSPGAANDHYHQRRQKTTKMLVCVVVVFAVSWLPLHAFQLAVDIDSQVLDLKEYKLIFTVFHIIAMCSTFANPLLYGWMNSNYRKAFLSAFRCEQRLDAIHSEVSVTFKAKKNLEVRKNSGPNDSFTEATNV

[6] = target: T4, 5-hydroxytryptamine receptor 1A (Rattus norvegicus, UniProt P19327); type: cell membranes, CHO-K1, Membrane; settings: for IC50: cho-k1; for pIC50: read-out: IC50; for pKi: read-out: Ki; as to all read-outs here: in other assays of this panel Not Active means under 50% inhibition at 10 µM
T4 sequence (P19327 whole entry): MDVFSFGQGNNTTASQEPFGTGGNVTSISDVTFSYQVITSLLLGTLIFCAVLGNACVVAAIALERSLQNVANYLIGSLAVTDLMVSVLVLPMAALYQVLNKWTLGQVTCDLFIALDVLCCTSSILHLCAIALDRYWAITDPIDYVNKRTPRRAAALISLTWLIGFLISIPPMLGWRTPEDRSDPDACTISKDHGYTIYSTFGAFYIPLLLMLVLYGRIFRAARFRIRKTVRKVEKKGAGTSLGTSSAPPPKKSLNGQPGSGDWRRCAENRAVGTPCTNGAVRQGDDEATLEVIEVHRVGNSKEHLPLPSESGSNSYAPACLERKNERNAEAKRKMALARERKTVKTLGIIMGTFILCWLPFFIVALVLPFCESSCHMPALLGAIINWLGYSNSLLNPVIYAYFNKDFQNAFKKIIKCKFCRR

Cytochrome P450 1A2 = target: T5, Cytochrome P450 1A2 (Homo sapiens, UniProt P05177); settings: bti-tn-5b1-4; also: in other assays of this panel Not Active means under 50% inhibition at 10 µM
T5 sequence (P05177 whole entry): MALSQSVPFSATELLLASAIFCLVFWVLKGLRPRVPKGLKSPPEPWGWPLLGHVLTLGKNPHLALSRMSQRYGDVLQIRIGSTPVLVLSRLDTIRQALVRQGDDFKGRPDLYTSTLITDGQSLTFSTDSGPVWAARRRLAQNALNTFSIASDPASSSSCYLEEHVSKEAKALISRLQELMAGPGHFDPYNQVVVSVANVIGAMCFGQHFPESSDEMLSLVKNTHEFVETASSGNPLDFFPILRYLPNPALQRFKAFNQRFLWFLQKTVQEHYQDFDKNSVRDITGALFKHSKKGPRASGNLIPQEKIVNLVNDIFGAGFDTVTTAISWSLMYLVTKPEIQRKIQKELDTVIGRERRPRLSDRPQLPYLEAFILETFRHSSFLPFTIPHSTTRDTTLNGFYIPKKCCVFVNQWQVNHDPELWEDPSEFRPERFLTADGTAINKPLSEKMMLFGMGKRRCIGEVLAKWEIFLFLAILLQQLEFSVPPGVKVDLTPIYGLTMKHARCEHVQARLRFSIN

O=C/C=C/c1ccccc1
Not Active: IC50 [1] | Ki [1] | IC50 [2] | IC50 [3] | IC50 [4] | IC50 [5] | IC50 [6] | IC50 (Cytochrome P450 1A2) | Ki (Cytochrome P450 1A2)

Nc1ccc2c3c(cccc13)C(=O)NC2=O
Not Active: IC50 [1] | Ki [1] | IC50 [2] | IC50 [3] | IC50 [4] | IC50 [5] | IC50 [6] | IC50 (Cytochrome P450 1A2) | Ki (Cytochrome P450 1A2)

O=c1cnn([C@@H]2O[C@H](CO)[C@@H](O)[C@H]2O)c(=O)[nH]1 [6-AZAURIDINE]
Not Active: IC50 [1] | Ki [1] | IC50 [2] | IC50 [3] | IC50 [4] | IC50 [5] | IC50 [6] | IC50 (Cytochrome P450 1A2) | Ki (Cytochrome P450 1A2)

CC[C@H](C)[C@H]1O[C@]2(C=C[C@@H]1C)C[C@@H]1C[C@@H](C/C=C(\C)[C@@H](O[C@H]3C[C@H](OC)[C@@H](O[C@H]4C[C@H](OC)[C@@H](O)[C@H](C)O4)[C@H](C)O3)[C@@H](C)/C=C/C=C3\CO[C@@H]4[C@H](O)C(C)=C[C@@H](C(=O)O1)[C@]34O)O2.CO[C@H]1C[C@H](O[C@H]2[C@H](C)O[C@@H](O[C@@H]3/C(C)=C/C[C@@H]4C[C@@H](C[C@]5(C=C[C@H](C)[C@@H](C(C)C)O5)O4)OC(=O)[C@@H]4C=C(C)[C@@H](O)[C@H]5OC/C(=C\C=C\[C@@H]3C)[C@]54O)C[C@@H]2OC)O[C@@H](C)[C@@H]1O [ABAMECTIN]
Not Active: IC50 [1] | Ki [1] | IC50 [2] | IC50 [3] | IC50 [4] | IC50 [5] | IC50 [6] | IC50 (Cytochrome P450 1A2) | Ki (Cytochrome P450 1A2)

Cc1nnc2n1-c1ccc(Cl)cc1C(c1ccccc1)=NC2 [ALPRAZOLAM]
Not Active: IC50 [1] | Ki [1] | IC50 [2] | IC50 [3] | IC50 [4] | IC50 [5] | IC50 [6] | IC50 (Cytochrome P450 1A2) | Ki (Cytochrome P450 1A2)

Cn1c(=O)c2[nH]cnc2n(C)c1=O.Cn1c(=O)c2[nH]cnc2n(C)c1=O.NCCN [AMINOPHYLLINE]
Not Active: IC50 [1] | Ki [1] | IC50 [2] | IC50 [3] | IC50 [4] | IC50 [5] | IC50 [6] | IC50 (Cytochrome P450 1A2) | Ki (Cytochrome P450 1A2)

CCC1(CCC(C)C)C(=O)NC(=O)NC1=O [AMOBARBITAL]
Not Active: IC50 [1] | Ki [1] | IC50 [2] | IC50 [3] | IC50 [4] | IC50 [5] | IC50 [6] | IC50 (Cytochrome P450 1A2) | Ki (Cytochrome P450 1A2)

CC1(C)S[C@@H]2[C@H](NC(=O)[C@H](N)c3ccccc3)C(=O)N2[C@H]1C(=O)O [AMPICILLIN]
Not Active: IC50 [1] | Ki [1] | IC50 [2] | IC50 [3] | IC50 [4] | IC50 [5] | IC50 [6] | IC50 (Cytochrome P450 1A2) | Ki (Cytochrome P450 1A2)

COc1ccc(C2C(=O)c3ccccc3C2=O)cc1 [ANISINDIONE]
Not Active: IC50 [1] | Ki [1] | IC50 [2] | IC50 [3] | IC50 [4] | IC50 [5] | IC50 [6] | IC50 (Cytochrome P450 1A2) | Ki (Cytochrome P450 1A2)

O=C1O[C@H]([C@@H](O)CO)C(O)=C1O [ASCORBIC ACID]
Not Active: IC50 [1] | Ki [1] | IC50 [2] | IC50 [3] | IC50 [4] | IC50 [5] | IC50 [6] | IC50 (Cytochrome P450 1A2) | Ki (Cytochrome P450 1A2)

CC(C(=O)O)c1ccc2oc(-c3ccc(Cl)cc3)nc2c1 (centres undefined) [BENOXAPROFEN]
Not Active: IC50 [1] | Ki [1] | IC50 [2] | IC50 [3] | IC50 [4] | IC50 [5] | IC50 [6] | IC50 (Cytochrome P450 1A2) | Ki (Cytochrome P450 1A2)

COc1ccc2cc3[n+](cc2c1OC)CCc1cc2c(cc1-3)OCO2.[Cl-] [BERBERINE CHLORIDE]
Not Active: IC50 [1] | Ki [1] | IC50 [2] | IC50 [3] | IC50 [4] | IC50 [5] | IC50 [6] | IC50 (Cytochrome P450 1A2) | Ki (Cytochrome P450 1A2)

O=C(O)CCNC(=O)c1ccccc1 [BETAMIPRON]
Not Active: IC50 [1] | Ki [1] | IC50 [2] | IC50 [3] | IC50 [4] | IC50 [5] | IC50 [6] | IC50 (Cytochrome P450 1A2) | Ki (Cytochrome P450 1A2)

CC(=O)Oc1ccc(C(c2ccc(OC(C)=O)cc2)c2ccccn2)cc1 [BISACODYL]
Not Active: IC50 [1] | Ki [1] | IC50 [2] | IC50 [3] | IC50 [4] | IC50 [5] | IC50 [6] | IC50 (Cytochrome P450 1A2) | Ki (Cytochrome P450 1A2)

Cc1cc2c(OCC(CNC(C)(C)C)OC(=O)c3ccccc3)cccc2[nH]1 (centres undefined) [BOPINDOLOL]
Not Active: IC50 [1] | Ki [1] | IC50 [2] | IC50 [3] | IC50 [4] | IC50 [5] | IC50 (Cytochrome P450 1A2) | Ki (Cytochrome P450 1A2)
6.57: pIC50 [6]
6.82: pKi [6]

Brc1c(NC2=NCCN2)ccc2nccnc12 [BRIMONIDINE]
5.84: pKi [6]
Not Active: IC50 [1] | Ki [1] | IC50 [2] | IC50 [3] | IC50 [4] | IC50 [5] | IC50 (Cytochrome P450 1A2) | Ki (Cytochrome P450 1A2)
5.59: pIC50 [6]

CN(C)[C@@H]1C(O)=C(C(N)=O)C(=O)[C@@]2(O)C(O)=C3C(=O)c4c(O)ccc(Cl)c4[C@@](C)(O)[C@H]3C[C@@H]12 [CHLORTETRACYCLINE]
Not Active: IC50 [1] | Ki [1] | IC50 [2] | IC50 [3] | IC50 [4] | IC50 [5] | IC50 [6] | IC50 (Cytochrome P450 1A2) | Ki (Cytochrome P450 1A2)

CN/C(=N\CCSCc1nc[nH]c1C)NC#N [CIMETIDINE]
Not Active: IC50 [1] | Ki [1] | IC50 [2] | IC50 [3] | IC50 [4] | IC50 [5] | IC50 [6] | IC50 (Cytochrome P450 1A2) | Ki (Cytochrome P450 1A2)
